Values quoted from earlier work in patent publication US9089619B2, “Hybrid nanocrystals for treatment and bioimaging of disease” (University of Kentucky, priority 2005, dated 2015).

Settings: water at 25° C.

solubility in water: about 1.6 μg/ml
Compound: Nc1nc2ncc(CNc3ccc(C(=O)N[C@@H](CCC(=O)O)C(=O)O)cc3)nc2c(=O)[nH]1 [Folic acid]
